# Laboratory results as given in patent US6737383B1, “Herbicidal oxadiazolidines” (priority 1999, dated 2004).
# Experiments:
# Details in all cases: Postemergence, 0 to 100 scale
# goosegrass = assay: Test D goosegrass; format: in vivo, Eleusine indica
# guineagrass = assay: Test D guineagrass; format: in vivo, Panicum maximum
# large crabgrass = assay: Test D large crabgrass; format: in vivo, Digitaria sanguinalis
# Johnson grass = assay: Test D Johnson grass; format: in vivo, Sorghum halepense
# pitted morningglory = assay: Test D pitted morningglory; format: in vivo, Ipomoea lacunosa
# [1] = Rate 64 g/ha, 0 no injury, 100 complete control
# [2] = Rate 125 g/ha, 0 no injury, 100 complete control
smiles,measurement,setting,value
CC(C)N(C(=O)n1oc(=O)n(C2CC2)c1=O)c1ccc(F)cc1F [Compound 299],"Plant response rating, Goosegrass",goosegrass; [1],90
same,"Plant response rating, Goosegrass",goosegrass; [2],100
same,"Plant response rating, Goosegrass",goosegrass; Rate 250 g/ha,100
same,"Plant response rating, Goosegrass",goosegrass; Rate 500 g/ha,100
same,Guineagrass plant response rating,guineagrass; [1],20
same,"Plant response rating, Guineagrass",guineagrass; [1],0
same,"Plant response rating, Guineagrass",guineagrass; [2],80
same,"Plant response rating, Guineagrass",guineagrass; Rate 250 g/ha,100
same,"Plant response rating, Guineagrass",guineagrass; Rate 500 g/ha,100
same,Plant response rating Large crabgrass,large crabgrass; [1],100
same,Plant response rating Large crabgrass,large crabgrass; [2],100
same,Plant response rating Large crabgrass,large crabgrass; Rate 250 g/ha,100
same,Plant response rating Large crabgrass,large crabgrass; Rate 500 g/ha,100
same,Plant response rating Johnsongrass,Johnson grass; [1],0
same,Plant response rating Johnsongrass,Johnson grass; [2],60
same,Plant response rating Johnsongrass,Johnson grass; Rate 250 g/ha,100
same,Plant response rating Johnsongrass,Johnson grass; Rate 500 g/ha,100
same,"Plant response rating, P. morninglory",pitted morningglory; [1],0
same,"Plant response rating, P. morninglory",pitted morningglory; [2],0
same,"Plant response rating, P. morninglory",pitted morningglory; Rate 250 g/ha,0
same,"Plant response rating, P. morninglory",pitted morningglory; Rate 500 g/ha,0
